Measurements reported in PubChem BioAssay AID330 (DTP/NCI, 2004).
Several values for one entry are separate records, joined by “and”; a condition that tells them apart may be missing. Equal values may be shown once. Inconclusive results and toxic doses are left out.

Test system: P388 leukemia ip, CD2F1 mice, survival T/C
Test: NCI In Vivo Anticancer Drug Screen. Data for tumor model P388 Leukemia (intraperitoneal) in CD2F1 (CDF1) mice
Settings: endpoint: median survival time, higher = longer survival
Method in brief: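 Mice carrying the transplanted tumor received test compound or vehicle. Survival was recorded in each group, and the value is the treated-group measurement divided by that of the vehicle-treated control group.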

[1] = dose: 50.0 mg/kg/injection, schedule: Q01DX005 (ip), vehicle: saline
[2] = dose: 100.0 mg/kg/injection, schedule: Q01DX005 (ip), vehicle: saline
[3] = dose: 200.0 mg/kg/injection, schedule: Q01DX005 (ip), vehicle: saline

[SeH]c1ccccc1 was tested, and the T/C (dose: 7.5 mg/kg/injection, schedule: Q01DX009 (ip), vehicle: saline with Tween-80) was 106 % of control, the T/C (dose: 15.0 mg/kg/injection, schedule: Q01DX009 (ip), vehicle: saline with Tween-80) was 113 % of control and the T/C (dose: 30.0 mg/kg/injection, schedule: Q01DX009 (ip), vehicle: saline with Tween-80) was 116 % of control.
With CN(C)CCCNc1cc(O)c2c(c1O)C(=O)c1ccccc1C2=O the T/C (dose: 12.5 mg/kg/injection, schedule: Q04DX003 (ip), vehicle: water) was 102 % of control, the T/C (dose: 25.0 mg/kg/injection, schedule: Q01DX009 (ip), vehicle: water) was 109 % of control and the T/C (dose: 25.0 mg/kg/injection, schedule: Q04DX003 (ip), vehicle: water) was 100 % of control. The T/C (dose: 50.0 mg/kg/injection, schedule: Q01DX009 (ip), vehicle: water) was 120 % of control, the T/C (dose: 50.0 mg/kg/injection, schedule: Q04DX003 (ip), vehicle: water) was 115 % of control and the T/C (dose: 88.0 mg/kg/injection, schedule: Q01DX009 (ip), vehicle: other) was 110 % of control. The T/C (dose: 100.0 mg/kg/injection, schedule: Q01DX009 (ip), vehicle: water) was 116 % of control, the T/C (dose: 100.0 mg/kg/injection, schedule: Q04DX003 (ip), vehicle: water) was 103 % of control and the T/C (dose: 133.0 mg/kg/injection, schedule: Q01DX009 (ip), vehicle: other) was 117 % of control. The T/C (dose: 200.0 mg/kg/injection, schedule: Q04DX003 (ip), vehicle: water) was 111 % of control.
COC1C(COC(=O)c2ccccc2)OC(OC(C)=O)C1OC(C)=O (configuration not stated) was tested, and the T/C (dose: 50.0 mg/kg/injection, schedule: Q01DX005 (ip), vehicle: saline with Tween-80) was 94 % of control, the T/C (dose: 100.0 mg/kg/injection, schedule: Q01DX005 (ip), vehicle: saline with Tween-80) was 96 % of control and the T/C (dose: 200.0 mg/kg/injection, schedule: Q01DX005 (ip), vehicle: saline with Tween-80) was 100 % of control.
CCCNCC(=O)Nc1ccccc1NC(=O)CNCCC was tested, and the T/C [1] was 100 % of control, the T/C [2] was 102 % of control and the T/C [3] was 100 % of control.
With CCC1(O)CC2CN(CCc3c([nH]c4ccccc34)C(C(=O)OC)(c3cc4c(cc3OC)N(C)C3C(O)(C(=O)OC)CC5(CC)C=CCN6CCC43C65)C2)C1 (configuration not stated) the T/C (dose: 1.0 mg/kg/injection, schedule: Q01DX001 (ip), vehicle: saline) was 120 % of control and 122 % of control, the T/C (dose: 4.0 mg/kg/injection, schedule: Q01DX001 (ip), vehicle: saline) was 150 % of control and the T/C (dose: 8.0 mg/kg/injection, schedule: Q01DX001 (ip), vehicle: saline) was 155 % of control. The T/C (dose: 16.0 mg/kg/injection, schedule: Q01DX001 (ip), vehicle: saline) was 165 % of control and 175 % of control and the T/C (dose: 32.0 mg/kg/injection, schedule: Q01DX001 (ip), vehicle: saline) was 195 % of control and 205 % of control.
With C/C1=C2N=C(/C=C3N=C(/C(C)=C4\[N-]C(C(CC(N)=O)C4(C)CCC(=O)NCC(C)OP(=O)(O)OC4C(CO)OC(n5cnc6cc(C)c(C)cc65)C4O)C4(C)N=C1C(CCC(N)=O)C4(C)CC(N)=O)C(CCC(N)=O)C\3(C)C)C(CCC(N)=O)C/2(C)CC(N)=O.[CH2-]C1OC(n2cnc3c(N)ncnc32)C(O)C1O.[Co+2] (configuration not stated) the T/C (dose: 8.8 micrograms/kg/injection, schedule: Q#A X Z (ip), vehicle: water) was 90 % of control, the T/C (dose: 88.3 micrograms/kg/injection, schedule: Q#A X Z (ip), vehicle: water) was 97 % of control and the T/C (dose: 8830.0 micrograms/kg/injection, schedule: Q#A X Z (ip), vehicle: water) was 89 % of control.
For O=C(/C=C/c1ccc(O)cc1)OCC1OC(Oc2cc(O)c3c(c2)OC(c2ccc(O)cc2)CC3=O)C(O)C(O)C1O (configuration not stated), the T/C (dose: 100.0 mg/kg/injection, schedule: Q04DX002 (ip), vehicle: saline) was 107 % of control, the T/C (dose: 200.0 mg/kg/injection, schedule: Q04DX002 (ip), vehicle: saline) was 94 % of control and the T/C (dose: 400.0 mg/kg/injection, schedule: Q04DX002 (ip), vehicle: saline) was 107 % of control.
For Nc1ccccc1C(=O)CCc1c[nH]c2ccccc12, the T/C (dose: 60.0 mg/kg/injection, schedule: Q01DX005 (ip), vehicle: saline with Tween-80) was 96 % of control, the T/C (dose: 120.0 mg/kg/injection, schedule: Q01DX005 (ip), vehicle: saline with Tween-80) was 90 % of control and the T/C (dose: 240.0 mg/kg/injection, schedule: Q01DX005 (ip), vehicle: saline with Tween-80) was 86 % of control.
With NC(=O)c1ccc(=O)n(C2OC(CO)C(O)C2O)c1 (configuration not stated) the T/C (dose: 50.0 mg/kg/injection, schedule: Q04DX003 (ip), vehicle: saline with Tween-80) was 102 % of control, the T/C (dose: 100.0 mg/kg/injection, schedule: Q04DX003 (ip), vehicle: saline with Tween-80) was 102 % of control and the T/C (dose: 200.0 mg/kg/injection, schedule: Q04DX003 (ip), vehicle: saline with Tween-80) was 100 % of control. For the same compound, the T/C (dose: 400.0 mg/kg/injection, schedule: Q04DX003 (ip), vehicle: saline with Tween-80) was 102 % of control.
With O=[N+]([O-])c1ccc(C=Nc2ccccc2)cc1 the T/C (dose: 50.0 mg/kg/injection, schedule: Q01DX009 (ip), vehicle: saline with Tween-80) was 101 % of control, the T/C (dose: 100.0 mg/kg/injection, schedule: Q01DX009 (ip), vehicle: saline with Tween-80) was 101 % of control and the T/C (dose: 200.0 mg/kg/injection, schedule: Q01DX009 (ip), vehicle: saline with Tween-80) was 97 % of control. For the same compound, the T/C (dose: 400.0 mg/kg/injection, schedule: Q01DX009 (ip), vehicle: saline with Tween-80) was 96 % of control.
In the case of CC(=O)Nc1ccc(Nc2ccc(NCCO)c3c2C(=O)c2c(O)ccc(O)c2C3=O)cc1, the T/C (dose: 25.0 mg/kg/injection, schedule: Q04DX002 (ip), vehicle: saline with Tween-80) is reported as 96 % of control, the T/C (dose: 50.0 mg/kg/injection, schedule: Q04DX002 (ip), vehicle: saline with Tween-80) is reported as 96 % of control and the T/C (dose: 100.0 mg/kg/injection, schedule: Q04DX002 (ip), vehicle: saline with Tween-80) is reported as 100 % of control. For the same compound, the T/C (dose: 200.0 mg/kg/injection, schedule: Q04DX002 (ip), vehicle: saline with Tween-80) was 100 % of control.
In the case of COc1c(C)cc(C)c(CCl)c1-c1c(CCl)c(C)cc(C)c1OC, the T/C (dose: 100.0 mg/kg/injection, schedule: Q01DX001 (ip), vehicle: Klucel (hydroxypropylcellulose) (HPC)) is reported as 90 % of control and the T/C (dose: 200.0 mg/kg/injection, schedule: Q01DX001 (ip), vehicle: Klucel (hydroxypropylcellulose) (HPC)) is reported as 93 % of control.
With N#Cc1[nH]nc2nc[nH]c(=O)c12 the T/C (dose: 100.0 mg/kg/injection, schedule: Q04DX002 (ip), vehicle: water) was 114 % of control and the T/C (dose: 200.0 mg/kg/injection, schedule: Q04DX002 (ip), vehicle: water) was 113 % of control.
In the case of O=C1OCC2OCCC12 (configuration not stated), the T/C [1] is reported as 100 % of control, the T/C [2] is reported as 100 % of control and the T/C [3] is reported as 101 % of control.
With NC(=O)c1ccc2c3c(ccc(C(N)=O)c13)CC2 the T/C (dose: 60.0 mg/kg/injection, schedule: Q01DX005 (ip), vehicle: Klucel (hydroxypropylcellulose) (HPC)) was 102 % of control, the T/C (dose: 120.0 mg/kg/injection, schedule: Q01DX005 (ip), vehicle: Klucel (hydroxypropylcellulose) (HPC)) was 109 % of control and the T/C (dose: 240.0 mg/kg/injection, schedule: Q01DX005 (ip), vehicle: Klucel (hydroxypropylcellulose) (HPC)) was 109 % of control.
For CC(C(=O)NC(=O)O)S(=O)(=O)O (configuration not stated), the T/C (dose: 12.5 mg/kg/injection, schedule: Q01DX001 (ip), vehicle: saline with Tween-80) was 101 % of control and the T/C (dose: 25.0 mg/kg/injection, schedule: Q01DX001 (ip), vehicle: saline with Tween-80) was 103 % of control.
In the case of COc1cc(/C=C/C(=O)NCCc2ccc(OCc3ccccc3)c(OC)c2)ccc1OCc1ccccc1, the T/C (dose: 100.0 mg/kg/injection, schedule: Q01DX001 (ip), vehicle: saline with Tween-80) is reported as 88 % of control, the T/C (dose: 200.0 mg/kg/injection, schedule: Q01DX001 (ip), vehicle: saline with Tween-80) is reported as 89 % of control and the T/C (dose: 400.0 mg/kg/injection, schedule: Q01DX001 (ip), vehicle: saline with Tween-80) is reported as 90 % of control.
For O=C(/C=C/c1ccccc1)c1ccccc1, the T/C (dose: 12.5 mg/kg/injection, schedule: Q01DX009 (ip), vehicle: Klucel (hydroxypropylcellulose) (HPC)) was 100 % of control, the T/C (dose: 25.0 mg/kg/injection, schedule: Q01DX009 (ip), vehicle: Klucel (hydroxypropylcellulose) (HPC)) was 105 % of control and the T/C (dose: 50.0 mg/kg/injection, schedule: Q01DX009 (ip), vehicle: Klucel (hydroxypropylcellulose) (HPC)) was 100 % of control. The T/C (dose: 100.0 mg/kg/injection, schedule: Q01DX009 (ip), vehicle: Klucel (hydroxypropylcellulose) (HPC)) was 108 % of control.
In the case of C=COC(=O)C(Cc1ccc(F)cc1)NC(=O)OCc1ccccc1 (configuration not stated), the T/C (dose: 100.0 mg/kg/injection, schedule: Q04DX002 (ip), vehicle: Klucel (hydroxypropylcellulose) (HPC)) is reported as 103 % of control, the T/C (dose: 200.0 mg/kg/injection, schedule: Q04DX002 (ip), vehicle: Klucel (hydroxypropylcellulose) (HPC)) is reported as 97 % of control and the T/C (dose: 400.0 mg/kg/injection, schedule: Q04DX002 (ip), vehicle: Klucel (hydroxypropylcellulose) (HPC)) is reported as 97 % of control.
For CCN(CC)C(=NC(C)C)c1ccccc1, the T/C (dose: 12.5 mg/kg/injection, schedule: Q01DX009 (ip), vehicle: saline) was 98 % of control and the T/C (dose: 25.0 mg/kg/injection, schedule: Q01DX009 (ip), vehicle: saline) was 94 % of control.
In the case of CCC(O)C(C[N+](=O)[O-])C(=O)OC (configuration not stated), the T/C [1] is reported as 109 % of control, the T/C [2] is reported as 107 % of control and the T/C [3] is reported as 102 % of control.
